Measurements published in US20220370440A1 (Lead Discovery Center GmbH, priority 2018, published 2022).

Experiments:
H1975 = H1975 CellTiter-Glo; format: cell-based; settings: Homo sapiens, NCI-H1975; 72 h compound incubation; read-out: H1975 CTG IC50
How it was run: (§1)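 Seed cells; incubate 24 h at 37° C., 5% CO2; add compound in DMSO over a concentration range; incubate 72 h; add CellTiter-Glo reagent, stabilise 10 min at room temperature; read luminescence; fit IC50.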

A431 = A431 CellTiter-Glo; format: cell-based; settings: Homo sapiens, A-431; 72 h compound incubation; read-out: A431 CTG IC50
How it was run: as §1

EGFR T790ML858R = EGFR T790ML858R (Homo sapiens, UniProt P00533, L858R/T790M); test: EGFR T790ML858R Lance assay; format: biochemical
Experimental: (§2) Inhibition is indicated as […] [nM] (“−”=not measured). Compounds having an activity designated as “A” provided an IC50≤100 nM; compounds having an activity designated as “B” provided an 100 nM<IC50≤500 nM; compounds having an activity designated as “C” provided an 500 nM<IC50≤1000 nM; compounds having an activity designated as “D” provided an 1000 nM<IC50≤100000 nM; and compounds having an activity designated as “E” provided an IC50>10000 nM.

HER2 INS YVMA = biological target: T1, HER2 INS YVMA (Homo sapiens, UniProt P04626, INS775YVMA); test: Lance Kinase Activity Assay, HER2 INS YVMA (Her2 Exon 20 INSYVMA Lance); format: biochemical; settings: biochemical Lance assay
T1 construct: purchased DPF
How it was run: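 IC50 was fitted to sigmoidal curves of TR-FRET signal (665 and 615 nm emission after 340 nm excitation) from an Eu anti-phospho antibody binding the phosphorylated ULight peptide. The ATP-started reaction ran 1 h at RT and was then quenched with 10 mM EDTA plus antibody for a further 1 h. Compounds were tested as 8-point, 3-fold dilutions.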

EGFR wt = EGFR wt (Homo sapiens, UniProt P00533); test: EGFR wt Lance assay; format: biochemical
Experimental: as §2

[1] = biological target: EGFR Exon 20 INSNPH Ba/F3 (Homo sapiens, UniProt P00533, DUP771-773, cells depend on it); test: EGFR Exon 20 INSNPH Ba/F3 CellTiter-Glo; format: cell-based; settings: CellTiter-Glo, 72 h, read-out: EGFR Exon 20 INSNPH Ba/F3 CTG IC50
How it was run: (§3)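 IC50 values, binned A (≤100 nM) through E (>10000 nM), come from luminescent ATP quantitation of viable mutant-driven Ba/F3 cells. Compound exposure lasted 72 h, starting 24 h post-seeding; DMSO and 10 μM staurosporine served as controls, Z′ ≥0.5 required.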

[2] = biological target: Her2 Exon 20 INSYVMA Ba/F3 (Homo sapiens, UniProt P04626, DUP772-775, cells depend on it); test: Her2 Exon 20 INSYVMA Ba/F3 CellTiter-Glo; format: cell-based; settings: CellTiter-Glo, 72 h, read-out: Her2 Exon 20 INSYVMA Ba/F3 CTG IC50
How it was run: as §3

Chain of EGFR wt (P00533 25-1210): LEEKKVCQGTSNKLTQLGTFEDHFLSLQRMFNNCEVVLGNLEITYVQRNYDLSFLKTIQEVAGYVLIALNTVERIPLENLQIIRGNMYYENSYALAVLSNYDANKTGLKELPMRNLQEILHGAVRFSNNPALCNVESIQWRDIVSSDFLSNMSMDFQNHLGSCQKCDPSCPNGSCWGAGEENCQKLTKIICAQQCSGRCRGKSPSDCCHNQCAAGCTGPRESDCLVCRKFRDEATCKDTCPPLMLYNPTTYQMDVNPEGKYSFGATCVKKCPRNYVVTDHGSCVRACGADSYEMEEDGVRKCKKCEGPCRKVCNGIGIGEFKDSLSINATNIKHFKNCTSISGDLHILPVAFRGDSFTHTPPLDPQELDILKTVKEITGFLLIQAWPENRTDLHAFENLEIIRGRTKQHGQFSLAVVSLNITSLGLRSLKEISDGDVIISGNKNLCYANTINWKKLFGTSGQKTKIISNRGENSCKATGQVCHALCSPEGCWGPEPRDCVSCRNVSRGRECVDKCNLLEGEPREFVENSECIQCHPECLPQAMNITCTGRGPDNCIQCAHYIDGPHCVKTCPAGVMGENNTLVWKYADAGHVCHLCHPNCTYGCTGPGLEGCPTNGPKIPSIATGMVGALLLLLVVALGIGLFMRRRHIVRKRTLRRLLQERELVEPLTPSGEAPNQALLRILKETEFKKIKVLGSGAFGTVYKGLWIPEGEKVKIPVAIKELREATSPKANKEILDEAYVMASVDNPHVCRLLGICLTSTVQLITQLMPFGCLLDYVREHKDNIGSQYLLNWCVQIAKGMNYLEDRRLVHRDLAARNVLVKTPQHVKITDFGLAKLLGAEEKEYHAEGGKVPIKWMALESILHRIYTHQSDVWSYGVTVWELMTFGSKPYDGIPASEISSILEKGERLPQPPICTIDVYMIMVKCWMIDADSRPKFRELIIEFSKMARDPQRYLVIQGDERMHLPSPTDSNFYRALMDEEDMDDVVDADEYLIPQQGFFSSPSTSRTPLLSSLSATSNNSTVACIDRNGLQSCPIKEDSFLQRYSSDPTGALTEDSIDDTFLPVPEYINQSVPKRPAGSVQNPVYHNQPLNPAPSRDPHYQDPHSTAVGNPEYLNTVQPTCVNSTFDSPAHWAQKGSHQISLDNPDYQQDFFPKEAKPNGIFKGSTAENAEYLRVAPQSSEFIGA
Chain of EGFR Exon 20 INSNPH Ba/F3 (P00533 with tags, fused parts or gaps DUP771-773): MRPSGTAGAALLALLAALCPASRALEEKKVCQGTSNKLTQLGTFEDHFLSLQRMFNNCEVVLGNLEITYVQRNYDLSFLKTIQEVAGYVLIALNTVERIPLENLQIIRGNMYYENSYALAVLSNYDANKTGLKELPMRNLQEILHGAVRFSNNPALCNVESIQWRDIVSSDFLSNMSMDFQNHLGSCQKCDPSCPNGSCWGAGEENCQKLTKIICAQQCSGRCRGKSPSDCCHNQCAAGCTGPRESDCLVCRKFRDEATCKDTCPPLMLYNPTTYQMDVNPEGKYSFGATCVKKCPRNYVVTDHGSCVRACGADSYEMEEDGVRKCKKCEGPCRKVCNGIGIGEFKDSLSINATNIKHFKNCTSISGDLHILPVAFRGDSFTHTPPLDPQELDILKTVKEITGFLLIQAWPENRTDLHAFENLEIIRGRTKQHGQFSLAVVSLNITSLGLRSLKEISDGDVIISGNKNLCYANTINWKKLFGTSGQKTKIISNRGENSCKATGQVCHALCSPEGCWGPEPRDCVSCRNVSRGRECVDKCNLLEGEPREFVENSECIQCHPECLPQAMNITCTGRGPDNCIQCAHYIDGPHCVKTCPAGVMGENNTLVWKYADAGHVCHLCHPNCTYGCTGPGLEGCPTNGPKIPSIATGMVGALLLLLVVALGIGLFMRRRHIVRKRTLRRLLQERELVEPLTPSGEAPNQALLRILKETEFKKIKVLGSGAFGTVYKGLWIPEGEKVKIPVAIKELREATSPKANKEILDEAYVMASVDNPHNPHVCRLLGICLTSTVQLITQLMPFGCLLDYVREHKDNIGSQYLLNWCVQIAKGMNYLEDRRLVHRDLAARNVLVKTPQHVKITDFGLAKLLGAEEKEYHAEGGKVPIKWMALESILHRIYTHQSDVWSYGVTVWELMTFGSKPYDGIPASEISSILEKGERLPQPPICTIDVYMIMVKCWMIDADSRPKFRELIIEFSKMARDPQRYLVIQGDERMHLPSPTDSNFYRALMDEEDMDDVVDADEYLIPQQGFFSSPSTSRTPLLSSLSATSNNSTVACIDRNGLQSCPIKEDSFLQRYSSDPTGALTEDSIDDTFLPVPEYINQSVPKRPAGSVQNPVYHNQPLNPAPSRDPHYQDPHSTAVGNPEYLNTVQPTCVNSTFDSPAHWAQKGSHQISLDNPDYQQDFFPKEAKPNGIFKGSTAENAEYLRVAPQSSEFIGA
T1 sequence (P04626 with tags, fused parts or gaps INS775YVMA): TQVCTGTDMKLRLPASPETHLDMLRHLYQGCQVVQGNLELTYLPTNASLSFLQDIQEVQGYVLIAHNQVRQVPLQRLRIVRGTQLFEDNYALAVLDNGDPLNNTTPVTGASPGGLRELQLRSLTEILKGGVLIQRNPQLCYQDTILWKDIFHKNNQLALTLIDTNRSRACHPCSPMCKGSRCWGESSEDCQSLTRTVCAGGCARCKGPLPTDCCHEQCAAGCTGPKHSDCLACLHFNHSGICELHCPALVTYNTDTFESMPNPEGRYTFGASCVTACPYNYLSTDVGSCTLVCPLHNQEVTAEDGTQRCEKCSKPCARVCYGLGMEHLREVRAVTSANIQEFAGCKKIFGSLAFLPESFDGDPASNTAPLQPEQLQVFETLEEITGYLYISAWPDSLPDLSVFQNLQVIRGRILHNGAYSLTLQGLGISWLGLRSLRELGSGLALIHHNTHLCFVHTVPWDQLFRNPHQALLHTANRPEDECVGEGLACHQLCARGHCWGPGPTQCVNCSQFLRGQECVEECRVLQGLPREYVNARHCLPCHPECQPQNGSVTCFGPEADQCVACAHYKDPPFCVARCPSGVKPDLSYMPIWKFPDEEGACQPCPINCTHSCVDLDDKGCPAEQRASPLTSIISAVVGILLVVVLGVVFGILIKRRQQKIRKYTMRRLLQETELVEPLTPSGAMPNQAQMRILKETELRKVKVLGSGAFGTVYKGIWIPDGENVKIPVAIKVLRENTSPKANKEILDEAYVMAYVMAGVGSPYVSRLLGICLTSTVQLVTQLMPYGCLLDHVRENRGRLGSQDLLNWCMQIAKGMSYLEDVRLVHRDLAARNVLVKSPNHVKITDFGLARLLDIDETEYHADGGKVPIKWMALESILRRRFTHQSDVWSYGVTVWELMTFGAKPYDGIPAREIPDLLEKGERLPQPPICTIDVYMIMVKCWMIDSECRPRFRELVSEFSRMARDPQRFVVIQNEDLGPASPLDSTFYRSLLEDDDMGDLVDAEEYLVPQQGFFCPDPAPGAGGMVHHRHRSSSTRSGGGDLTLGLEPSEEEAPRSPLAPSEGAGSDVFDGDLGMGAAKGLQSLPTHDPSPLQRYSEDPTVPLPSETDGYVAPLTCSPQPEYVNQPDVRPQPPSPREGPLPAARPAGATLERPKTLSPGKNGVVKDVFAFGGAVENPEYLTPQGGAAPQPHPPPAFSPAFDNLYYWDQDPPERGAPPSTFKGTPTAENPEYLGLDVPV
Chain of Her2 Exon 20 INSYVMA Ba/F3 (P04626 with tags, fused parts or gaps DUP772-775): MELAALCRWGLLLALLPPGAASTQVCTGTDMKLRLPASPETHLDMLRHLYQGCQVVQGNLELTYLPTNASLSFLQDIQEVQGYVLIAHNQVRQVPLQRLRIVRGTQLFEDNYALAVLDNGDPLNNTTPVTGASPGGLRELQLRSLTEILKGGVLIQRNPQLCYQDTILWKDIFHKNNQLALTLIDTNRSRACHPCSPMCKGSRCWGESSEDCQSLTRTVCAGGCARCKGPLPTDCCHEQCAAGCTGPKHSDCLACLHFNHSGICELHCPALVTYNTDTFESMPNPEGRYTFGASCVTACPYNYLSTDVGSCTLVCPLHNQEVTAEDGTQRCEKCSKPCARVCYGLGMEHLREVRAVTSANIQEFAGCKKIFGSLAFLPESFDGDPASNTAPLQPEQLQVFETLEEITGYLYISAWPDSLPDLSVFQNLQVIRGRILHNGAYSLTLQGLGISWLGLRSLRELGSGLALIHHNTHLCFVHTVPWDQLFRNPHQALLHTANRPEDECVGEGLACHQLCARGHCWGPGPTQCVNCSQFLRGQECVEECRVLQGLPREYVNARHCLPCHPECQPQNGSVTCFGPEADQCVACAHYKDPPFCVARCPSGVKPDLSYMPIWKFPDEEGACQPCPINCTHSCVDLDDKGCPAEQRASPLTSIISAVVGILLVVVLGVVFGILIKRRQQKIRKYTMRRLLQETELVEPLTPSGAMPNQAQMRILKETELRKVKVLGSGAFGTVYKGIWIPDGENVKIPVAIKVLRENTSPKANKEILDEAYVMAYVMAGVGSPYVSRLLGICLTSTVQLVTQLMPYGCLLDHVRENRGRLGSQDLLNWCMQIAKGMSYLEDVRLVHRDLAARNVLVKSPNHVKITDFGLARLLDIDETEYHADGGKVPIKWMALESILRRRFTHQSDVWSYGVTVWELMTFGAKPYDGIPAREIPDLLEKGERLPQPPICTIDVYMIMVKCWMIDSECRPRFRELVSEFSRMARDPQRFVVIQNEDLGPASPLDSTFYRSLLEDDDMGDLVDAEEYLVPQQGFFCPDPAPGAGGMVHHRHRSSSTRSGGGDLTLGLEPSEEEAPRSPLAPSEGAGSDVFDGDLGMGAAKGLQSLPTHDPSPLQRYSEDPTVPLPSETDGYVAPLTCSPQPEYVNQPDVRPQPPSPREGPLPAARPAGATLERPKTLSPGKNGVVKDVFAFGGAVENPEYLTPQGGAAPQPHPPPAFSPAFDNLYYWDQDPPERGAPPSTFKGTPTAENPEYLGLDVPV

Row | SMILES | IC50 (H1975) | IC50 (A431) | IC50 (EGFR T790ML858R) | IC50 (HER2 INS YVMA) | IC50 (EGFR wt) | GI50 [1] | GI50 [2]
1 | C=CC(=O)Nc1cc(-c2c(-c3cccc(N4CCN(C(C)=O)CC4)c3)[nH]c3ncc(C(=O)OC(C)C)cc23)ccc1C [Example 185, isopropyl 2-(3-(4-acetylpiperazin-1-yl)phenyl)-3-(3-acrylamido-4-methylphenyl)-1H-pyrrolo[2,3-b]pyridine-5-carboxylate] | 1000 to 100000 nM | > 10000 nM | 500 to 1000 nM | 1000 to 10000 nM | ≤ 100 nM | 1000 to 10000 nM | 1000 to 10000 nM
2 | C=CC(=O)Nc1cc(-c2c(-c3ccc(N4CCN(C)CC4)cc3)[nH]c3ncc(CC)cc23)ccc1C [Example 191, N-(5-(5-ethyl-2-(4-(4-methylpiperazin-1-yl)phenyl)-1H-pyrrolo[2,3-b]pyridin-3-yl)-2-methylphenyl)acrylamide 2,2,2-trifluoroacetate] | ≤ 100 nM | 1000 to 100000 nM | ≤ 100 nM | ≤ 100 nM | ≤ 100 nM | 100 to 500 nM | 100 to 500 nM
3 | C=CC(=O)Nc1cc(-c2c(-c3ccc(N4CCN(C)CC4)nc3)[nH]c3ncc(C(=O)OC(C)C)cc23)cc(F)c1C [Example 174, isopropyl 3-(3-acrylamido-5-fluoro-4-methylphenyl)-2-(6-(4-methylpiperazin-1-yl)pyridin-3-yl)-1H-pyrrolo[2,3-b]pyridine-5-carboxylate] | 500 to 1000 nM | 1000 to 100000 nM | ≤ 100 nM | ≤ 100 nM | ≤ 100 nM | 100 to 500 nM | 500 to 1000 nM
4 | C=CC(=O)Nc1cc(-c2c(-c3cccc(C(=O)NCCCN4CCN(CC)CC4)c3)[nH]c3nccc(Cl)c23)ccc1C [Example 54, 3-(3-(3-acrylamido-4-methylphenyl)-4-chloro-1H-pyrrolo[2,3-b]pyridin-2-yl)-N-(3-(4-ethylpiperazin-1-yl)propyl)benzamide] | 100 to 500 nM | 1000 to 100000 nM | ≤ 100 nM | 100 to 500 nM | ≤ 100 nM | 1000 to 10000 nM | 1000 to 10000 nM
5 | C=CC(=O)Nc1cc(-c2c(-c3ccc(N4CCN(C)CC4)cc3)[nH]c3ncc(C(=O)OC4COC4)cc23)ccc1C [Example 141, oxetan-3-yl 3-(3-acrylamido-4-methylphenyl)-2-(4-(4-methylpiperazin-1-yl)phenyl)-1H-pyrrolo[2,3-b]pyridine-5-carboxylate] | 100 to 500 nM | 1000 to 100000 nM | ≤ 100 nM | ≤ 100 nM | ≤ 100 nM | 500 to 1000 nM | 500 to 1000 nM
6 | Cc1ccc(-c2c(-c3ccc(N4CCN(C)CC4)cc3)[nH]c3ncc(C(=O)OC(C)C)cc23)cc1NC(=O)/C=C/CN(C)C [Example 148, (E)-isoproyl 3-(3-(4-(dimethylamino)but-2-enamido)-4-methylphenyl)-2-(4-(4-methylpiperazin-1-yl)phenyl)-1H-pyrrolo[2,3-b]pyridine-5-carboxylate 2,2,2-trifluoroacetate] | 500 to 1000 nM | 1000 to 100000 nM | ≤ 100 nM | ≤ 100 nM | ≤ 100 nM | 500 to 1000 nM | 100 to 500 nM
7 | C=CC(=O)Nc1cc(-c2c(-c3ccc(N4CCN(C)CC4)cc3)[nH]c3ncc(OC(F)(F)F)cc23)ccc1C [Example 188, N-(2-methyl-5-(2-(4-(4-methylpiperazin-1-yl)phenyl)-5-(trifluoromethoxy)-1H-pyrrolo[2,3-b]pyridin-3-yl)phenyl)acrylamide 2,2,2-trifluoroacetate] | 100 to 500 nM | 1000 to 100000 nM | ≤ 100 nM | ≤ 100 nM | ≤ 100 nM | 100 to 500 nM | 100 to 500 nM
8 | C=CC(=O)Nc1cc(-c2c(-c3ccc(CCO)cc3)[nH]c3ncc(C(=O)OC(C)C)cc23)ccc1C [Example 168, isopropyl 3-(3-acrylamido-4-methylphenyl)-2-(4-(2-hydroxyethyl)phenyl)-1H-pyrrolo[2,3-b]pyridine-5-carboxylate] | 1000 to 100000 nM | 1000 to 100000 nM | 100 to 500 nM | 100 to 500 nM | ≤ 100 nM | 500 to 1000 nM | 500 to 1000 nM
